# Assay results as given in patent US8969568B2, “Substituted naphthyridines and their use as medicaments” (Boehringer Ingelheim Pharma GmbH & Co. KG, priority 2010, dated 2015).
# Target: Recombinant human Syk (amino acids 342-635), GST-Syk kinase fusion protein (Homo sapiens (Human), UniProt P43405)
# Assay: Syk Kinase Test (Kinase Glo luminescence)
# Conditions: read-out: IC50-value, GST-Syk 4 nM final, ATP remaining, 60 minutes at room temperature
# Description: The catalytic activity of the GST-Syk kinase fusion protein was determined using the Kinase Glo® Luminescence Kinase test (Promega; V6712). In this homogeneous test the amount of ATP remaining after the kinase reaction is quantified by a luciferin-luciferase reaction using luminescence. The luminescence signal obtained correlates with the amount of ATP still present and thus correlates inversely with the activity of the protein kinase.
# GST-Syk was diluted to 6.0 nM in the test buffer and 10 μl of this dilution were used in the kinase test (final concentration of Syk=4 nM in a total volume of 15 μl).
# Positive controls are the reaction mixtures that contain no test substance; negative controls (blanks) are reaction mixtures that contain no kinase.
# After 60 minutes, 10 μl Kinase-Glo® solution (Promega, Cat. #V6712) (heated to room temperature) were added to each well and incubation was continued for a further 15 minutes. The plates were read in a Microplate Scintillation and Luminescence Counter (Canberra Packard GmbH).
# Data Evaluation and Calculation:
# The output file of the “Counter” is a text file that contains the well number and measured counts in two columns. […] Based on this values the % inherent value for the measurement of each substance concentration was calculated using an “MS-Excel—VB macro”. […] The IC50 values were calculated from the % inhibition values using “GraphPadPrism” software (Version 5) (GraphPad Software Inc.).
row,IC50 [nM],SMILES
1,< 0.1,COc1cc(-c2cc3ncccc3c(O[C@H](C)[C@H]3CNC(=O)C3)n2)ccc1OC1CCOCC1 [Example 63]
2,16.1,COc1cc(-c2cc3ncccc3c(OC[C@H]3CNC(=O)C3)n2)cc(OC)c1OC1CCOCC1 [Example 44]
3,0.2,"COc1cc(-c2cc3ncccc3c(O[C@H](C)[C@H]3CNC(=O)C3)n2)cc(OC)c1OC [Example 35, (R)-4-[(R)-1-[7-(3,4,5-Trimethoxy-phenyl)-[1,6]naphthyridin-5-yloxy]-ethyl]-pyrrolidin-2-one]"
